Data as given in publication PMC7558535, “In Vitro Metabolism of DWP16001, a Novel Sodium-Glucose Cotransporter 2 Inhibitor, in Human and Animal Hepatocytes” (Pharmaceutics, 2020).

Assays:
dog hepatocytes = experiment: Metabolic stability in dog hepatocytes; assay type: in vitro ADME
Experimental: (§1) To evaluate the metabolic stability of DWP16001 in human, dog, monkey, mouse, and rat hepatocytes, pooled cryopreserved hepatocytes were carefully thawed in recovery medium and resuspended in incubation medium (Krebs–Henseleit buffer for mouse, rat, and human; William’s E media for dog and monkey) to 0.5 × 10^6 cells/mL for mouse, 0.67 × 10^6 cells/mL for rat, and 1.0 × 10^6 cells/mL for dog, monkey, and human in accordance with the manufacturer’s protocols. Then, 60-μL aliquots of these hepatocyte suspensions and an equal volume of 2 μM DWP16001 in incubation medium were mixed in 96-well plates and incubated in triplicate for 0, 30, 60, 90, 120, 180, or 240 min in a CO2 incubator at 37 °C. Reactions were stopped by addition of 120 µL of ice-cold acetonitrile to each well and the cell suspension was sonicated for 5 min at 4 °C, followed by centrifugation at 15,000× g for 10 min at 4 °C after 5 min of sonication. 80-µL aliquots of the supernatants were then vortex-mixed with 20 μL of ice-cold ketoconazole (an internal standard) in acetonitrile and analyzed by LC–tandem mass spectrometry (LC-MS/MS). The peak area ratios of DWP16001 versus internal standard at each sampling point were used for the subsequent calculation. Elimination parameters, including half-life (t1/2), intrinsic clearance (Clint), and hepatic clearance (Clhep) of DWP16001 in mouse, rat, dog, monkey, and human were calculated by the following equations [19]. (1) t1/2min=ln2/−k elimination slope (2) ClintmL/min/kg=ln2/t1/2×mL incubation/hepatocytes 10^6 cells×B×10^6 cells/g liver×A g liver/kg BW (3) ClhepmL/min/kg=Qh×Clint/Qh+Clint (4) Hepatic extraction ratio = Clhep/Qh
(§2) Here, A has values of 87.5, 40, 32, 32, and 25.7; B has values of 135, 117, 215, 120, and 139; Qh (representing hepatic blood flow) has values of 90, 55.2, 30.9, 43.4, and 20.7 mL/min/kg, for mouse, rat, dog, monkey, and human, respectively. Hepatic extraction ratio values of ≤ 0.25, 0.25–0.75, and ≥ 0.75 were regarded as low, moderate, and high, respectively.

[1] = Metabolic stability in dog hepatocytes; assay type: in vitro ADME; settings: pooled cryopreserved hepatocytes, dog hepatocytes
Experimental: as §1, §2

UGT1A9 = molecular target: T1, UGT1A9 (Homo sapiens, UniProt O60656); experiment: UGT screening, cDNA-expressed UGT1A9; assay type: in vitro ADME
T1 construct: purchased Corning Life Sciences
T1 sequence (O60656 26-530): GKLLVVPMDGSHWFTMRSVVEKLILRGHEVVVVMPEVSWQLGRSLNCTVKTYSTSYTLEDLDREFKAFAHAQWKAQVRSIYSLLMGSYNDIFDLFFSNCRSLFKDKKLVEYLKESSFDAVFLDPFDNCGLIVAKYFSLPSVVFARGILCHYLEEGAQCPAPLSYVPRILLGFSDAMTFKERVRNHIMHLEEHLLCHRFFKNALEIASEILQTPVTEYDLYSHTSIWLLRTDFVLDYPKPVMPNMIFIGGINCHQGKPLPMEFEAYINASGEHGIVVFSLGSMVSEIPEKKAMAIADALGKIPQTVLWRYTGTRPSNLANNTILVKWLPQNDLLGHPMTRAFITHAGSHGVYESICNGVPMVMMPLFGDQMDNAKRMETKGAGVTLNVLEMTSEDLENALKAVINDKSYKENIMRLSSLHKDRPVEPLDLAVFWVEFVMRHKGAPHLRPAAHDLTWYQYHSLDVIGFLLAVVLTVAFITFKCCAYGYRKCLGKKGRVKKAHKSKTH
Experimental: (§3) To screen for UGT enzymes responsible for glucuronidation of DWP16001, 100 μL of reaction mixtures containing 13 human cDNA-expressed UGT enzymes (1A1, 1A3, 1A4, 1A6, 1A7, 1A8, 1A9, 1A10, 2B4, 2B7, 2B10, 2B15, and 2B17) at 0.1 mg protein/mL, 5 mM UDPGA, 0.025 mg/mL alamethicin, and 25 μM DWP16001 or M1 in 50 mM Tris buffer (pH 7.4) were incubated at 37 °C for 30 min in triplicate. Reactions were stopped by adding 100 μL of ketoconazole (internal standard, 200 ng/mL) in acetonitrile, followed by vortex-mixing and centrifugation (15,000× g, 8 min, 4 °C). The supernatant (75 μL) was diluted with equal volume of 30% acetonitrile and aliquots (5 μL) were injected into an LC-MS/MS system.

UGT1A4 = molecular target: T2, UGT1A4 (Homo sapiens, UniProt P22310); experiment: UGT screening, cDNA-expressed UGT1A4; assay type: in vitro ADME
T2 construct: purchased Corning Life Sciences
T2 sequence (P22310 29-534): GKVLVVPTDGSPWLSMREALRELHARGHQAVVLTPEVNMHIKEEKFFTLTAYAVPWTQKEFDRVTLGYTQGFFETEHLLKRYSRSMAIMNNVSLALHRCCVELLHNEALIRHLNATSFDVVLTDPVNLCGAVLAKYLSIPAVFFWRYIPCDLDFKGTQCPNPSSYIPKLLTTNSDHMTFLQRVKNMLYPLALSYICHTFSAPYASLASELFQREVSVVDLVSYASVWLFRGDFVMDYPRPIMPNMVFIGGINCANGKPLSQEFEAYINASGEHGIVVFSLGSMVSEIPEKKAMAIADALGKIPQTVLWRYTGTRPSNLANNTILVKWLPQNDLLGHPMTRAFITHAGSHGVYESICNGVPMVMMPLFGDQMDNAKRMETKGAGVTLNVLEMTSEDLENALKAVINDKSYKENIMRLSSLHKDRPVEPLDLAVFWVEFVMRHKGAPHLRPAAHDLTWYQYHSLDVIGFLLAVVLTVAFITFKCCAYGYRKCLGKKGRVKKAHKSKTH
Experimental: as §3

SGLT2 = tested on: SGLT2; parameters: method as in PMID 32183468; settings: read-out: IC50 (SGLT2 inhibition); cited from earlier work
CYP2C19 = molecular target: T3, CYP2C19 (Homo sapiens, UniProt P33261); experiment: CYP screening, recombinant CYP2C19; assay type: in vitro ADME
T3 construct: purchased Corning Life Sciences
T3 sequence (P33261 whole entry): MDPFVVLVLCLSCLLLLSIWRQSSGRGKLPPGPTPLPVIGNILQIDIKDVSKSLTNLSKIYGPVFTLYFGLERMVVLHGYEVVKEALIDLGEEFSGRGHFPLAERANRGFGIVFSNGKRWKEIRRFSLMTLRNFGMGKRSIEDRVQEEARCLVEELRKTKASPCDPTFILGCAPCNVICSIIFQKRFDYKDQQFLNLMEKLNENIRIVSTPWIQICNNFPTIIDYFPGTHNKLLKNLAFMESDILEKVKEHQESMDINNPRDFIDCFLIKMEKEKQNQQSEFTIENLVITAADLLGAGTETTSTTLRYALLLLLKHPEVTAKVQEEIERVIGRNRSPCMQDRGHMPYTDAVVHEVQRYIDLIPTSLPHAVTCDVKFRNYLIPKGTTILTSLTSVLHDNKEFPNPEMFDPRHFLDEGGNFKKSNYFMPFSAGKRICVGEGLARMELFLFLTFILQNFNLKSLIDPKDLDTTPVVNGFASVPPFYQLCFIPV
Experimental: DWP16001, M1, or M2 was incubated with 11 human cDNA-expressed CYP enzymes (1A1, 1A2, 2A6, 2B6, 2C8, 2C9, 2C19, 2D6, 2E1, 3A4, and 3A5) to identify the CYP enzymes involved in the metabolism of DWP16001. Reaction mixtures of 95 µL containing DWP16001 (final concentration: 5 µM), M1 or M2 (final concentration: 10 µM), and CYPs (final amount: 10 pmol) were prepared in 0.1 M potassium phosphate buffer (pH 7.4). The reaction was started by adding 5 µL of NADPH-generating system; the mixtures were incubated for 30 min at 37 °C in triplicate. Reactions were stopped by the addition of 400 µL of ice-cold ketoconazole (internal standard, 200 ng/mL) in ice-cold acetonitrile. Samples were centrifuged at 15,000× g for 8 min at 4 °C. Seventy-five microliter aliquots of the supernatants were diluted with 75 µL of deionized water and analyzed using an LC–MS/MS system.

For `OC[C@H]1O[C@@H](c2cc(Cc3ccc(C4CC4)cc3)c(Cl)c3c2CCO3)[C@H](O)[C@@H](O)[C@@H]1O` [DWP16001, (2S,3R,4R,5S,6R)-2-(7-chloro-6-(4-cyclopropylbenzyl)-2,3-dihydrobenzofuran-4-yl)-6-(hydroxymethyl)tetrahydro-2H-pyran-3,4,5-triol], the “Hepatic extraction ratio class” value (dog hepatocytes; dog) was “moderate (0.25–0.75)”, the Clhep (dog hepatocytes; dog hepatocytes, well-stirred model) was 17.9 mL/min/kg and the CLint scaled at 1 μM [1] was 42.7 mL/min/kg. For the same compound, the half-life at 1 μM ([1]; 37 °C, 0-240 min) was 3.73 h, the “Substrate of UGT1A9” value (UGT1A9) was “substrate” and the “Substrate of UGT1A4” value (UGT1A4) was “substrate”. The IC50 (SGLT2) was 800 ± 300 pM and the “Substrate of CYP2C19” value (CYP2C19) was “substrate”.
